Patent US10221178B2, “Purine inhibitors of human phosphatidylinositol 3-kinase delta” (MERCK SHARP & DOHME CORP., priority 2015, dated 2019)

What was measured:
[1] = target: PI3Kalpha (Homo sapiens (Human), UniProt P42336); assay: HTRF PI3K biochemical assay, alpha isoform (selectivity versus PI3Kalpha); details: relative ratio (PI3K-alpha IC50 value/PI3K-delta IC50 value); form screened: Neutral
Outline: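 Uses recombinant PI3Kalpha at 0.5 nM with 100 uM ATP and 5 uM PIP2, after a 15 min RT compound pre-incubation and a 1 h RT reaction. PIP3 product displaces biotin-PIP3 from GST-GRP1 PH domain, read as HTRF 665/620 ratio. IC50 from a 10-point dose response, corrected via a PIP3 standard curve.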

[2] = target: PI3Kdelta (Homo sapiens (Human), UniProt O00329); assay: HTRF PI3K biochemical assay, delta isoform; details: 0.3 nM enzyme, 100 uM ATP, 5 uM PIP2, form screened: Neutral
Outline: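 0.3 nM PI3Kδ, pre-incubated 15 min at RT with compound (10-point 3-fold series), then reacted 1 h at RT with 100 uM ATP and 5 uM PIP2. After EDTA stop, PIP3 product detected by HTRF competition (GST-GRP1-PH, biotin-PIP3, Eu anti-GST, SA-APC), read 665/620 nm after 1 h.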

PI3Kdelta, sequence (O00329 whole entry, canonical isoform): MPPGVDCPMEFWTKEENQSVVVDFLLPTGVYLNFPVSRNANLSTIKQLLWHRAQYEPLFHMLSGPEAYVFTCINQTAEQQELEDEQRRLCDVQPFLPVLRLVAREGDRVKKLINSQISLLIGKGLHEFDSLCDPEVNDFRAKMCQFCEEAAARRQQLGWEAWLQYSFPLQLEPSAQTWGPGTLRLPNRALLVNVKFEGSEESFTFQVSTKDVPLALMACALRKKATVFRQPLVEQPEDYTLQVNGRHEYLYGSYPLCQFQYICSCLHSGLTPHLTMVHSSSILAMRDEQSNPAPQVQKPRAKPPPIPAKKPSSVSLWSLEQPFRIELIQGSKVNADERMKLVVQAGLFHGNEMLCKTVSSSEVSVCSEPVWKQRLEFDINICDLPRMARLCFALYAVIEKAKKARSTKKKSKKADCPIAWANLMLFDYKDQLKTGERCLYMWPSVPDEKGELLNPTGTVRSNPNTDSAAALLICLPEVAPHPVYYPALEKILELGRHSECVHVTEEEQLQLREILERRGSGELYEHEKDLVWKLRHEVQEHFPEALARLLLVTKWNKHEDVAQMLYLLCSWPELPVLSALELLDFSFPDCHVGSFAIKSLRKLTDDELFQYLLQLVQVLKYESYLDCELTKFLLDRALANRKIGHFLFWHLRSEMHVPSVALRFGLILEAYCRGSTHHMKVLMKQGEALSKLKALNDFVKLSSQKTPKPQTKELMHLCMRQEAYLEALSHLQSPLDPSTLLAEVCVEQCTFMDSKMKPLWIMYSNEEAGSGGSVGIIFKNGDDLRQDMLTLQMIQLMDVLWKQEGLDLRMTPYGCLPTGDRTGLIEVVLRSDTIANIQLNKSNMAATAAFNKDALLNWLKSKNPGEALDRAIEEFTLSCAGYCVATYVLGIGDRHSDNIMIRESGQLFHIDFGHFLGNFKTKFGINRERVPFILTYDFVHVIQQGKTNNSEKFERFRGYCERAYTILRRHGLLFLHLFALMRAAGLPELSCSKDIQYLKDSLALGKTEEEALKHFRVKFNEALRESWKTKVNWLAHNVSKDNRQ
PI3Kdelta, sequence (P27986 whole entry partner, canonical isoform): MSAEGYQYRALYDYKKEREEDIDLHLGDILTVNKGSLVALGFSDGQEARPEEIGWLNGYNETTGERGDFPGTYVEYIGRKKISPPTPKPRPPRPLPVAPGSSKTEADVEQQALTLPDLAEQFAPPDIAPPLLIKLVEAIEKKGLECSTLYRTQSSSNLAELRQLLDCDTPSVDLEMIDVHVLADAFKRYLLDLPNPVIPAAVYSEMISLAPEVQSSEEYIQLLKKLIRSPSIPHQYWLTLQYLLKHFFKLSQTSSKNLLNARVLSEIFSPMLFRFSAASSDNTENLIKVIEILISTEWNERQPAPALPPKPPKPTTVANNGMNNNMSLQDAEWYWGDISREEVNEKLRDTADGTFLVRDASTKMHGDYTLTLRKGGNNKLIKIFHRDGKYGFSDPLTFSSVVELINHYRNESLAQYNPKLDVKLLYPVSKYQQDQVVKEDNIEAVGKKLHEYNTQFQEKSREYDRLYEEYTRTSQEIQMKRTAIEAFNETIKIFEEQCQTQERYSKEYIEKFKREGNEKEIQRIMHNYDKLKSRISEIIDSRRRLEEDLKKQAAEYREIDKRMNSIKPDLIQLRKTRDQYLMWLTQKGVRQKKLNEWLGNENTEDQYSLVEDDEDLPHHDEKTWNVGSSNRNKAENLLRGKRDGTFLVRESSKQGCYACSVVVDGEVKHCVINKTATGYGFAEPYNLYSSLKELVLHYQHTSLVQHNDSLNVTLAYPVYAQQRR
PI3Kalpha, sequence (P42336 whole entry, the tested form may be a part, canonical isoform): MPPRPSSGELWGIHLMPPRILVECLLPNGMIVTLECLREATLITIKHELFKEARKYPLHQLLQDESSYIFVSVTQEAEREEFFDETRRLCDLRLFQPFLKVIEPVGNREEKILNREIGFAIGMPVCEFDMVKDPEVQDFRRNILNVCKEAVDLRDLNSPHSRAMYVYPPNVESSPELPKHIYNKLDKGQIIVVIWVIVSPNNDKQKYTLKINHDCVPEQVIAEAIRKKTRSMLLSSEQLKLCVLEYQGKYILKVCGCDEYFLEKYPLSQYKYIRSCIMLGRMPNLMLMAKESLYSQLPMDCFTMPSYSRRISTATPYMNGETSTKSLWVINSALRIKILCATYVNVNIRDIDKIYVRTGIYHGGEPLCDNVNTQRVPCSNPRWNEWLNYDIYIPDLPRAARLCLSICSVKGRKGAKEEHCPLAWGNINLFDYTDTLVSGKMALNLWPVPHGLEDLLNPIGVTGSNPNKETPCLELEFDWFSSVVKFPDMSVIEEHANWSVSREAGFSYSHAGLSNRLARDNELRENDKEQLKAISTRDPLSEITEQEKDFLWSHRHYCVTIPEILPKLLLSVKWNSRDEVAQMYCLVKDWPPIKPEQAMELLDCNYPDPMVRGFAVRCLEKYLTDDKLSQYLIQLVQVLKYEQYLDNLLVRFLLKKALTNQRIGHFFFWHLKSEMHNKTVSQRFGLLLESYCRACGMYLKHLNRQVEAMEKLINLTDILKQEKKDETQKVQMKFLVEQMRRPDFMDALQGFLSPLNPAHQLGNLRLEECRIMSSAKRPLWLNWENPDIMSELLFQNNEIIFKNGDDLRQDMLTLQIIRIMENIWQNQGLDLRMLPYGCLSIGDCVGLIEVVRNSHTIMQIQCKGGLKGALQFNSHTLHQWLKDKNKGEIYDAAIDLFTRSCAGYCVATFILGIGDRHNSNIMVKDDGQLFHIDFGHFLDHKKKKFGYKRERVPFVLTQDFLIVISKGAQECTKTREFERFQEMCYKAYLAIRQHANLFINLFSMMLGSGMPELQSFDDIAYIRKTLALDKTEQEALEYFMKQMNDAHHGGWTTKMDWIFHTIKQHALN
PI3Kalpha, sequence (P27986 whole entry partner, the tested form may be a part, canonical isoform): as the sequence (P27986 whole entry partner, canonical isoform) above

SMILES	Selectivity versus PI3Kalpha [1]	IC50 [2] [nM]
CCn1c(-c2cnc(C)nc2)nc2c(N[C@H](C(=O)N3C[C@@H](C)O[C@@H](C)C3)c3ccccc3)ncnc21 [Compound 2-43, N-{(1S)-2-[(cis)-2,6-dimethylmorpholin-4-yl]-2-oxo-1-phenylethyl}-9-ethyl-8-(2-methylpyrimidin-5-yl)-9H-purin-6-amine]	>10	87
CCC(Nc1ncnc2c1nc(-c1cnc(C)nc1)n2CC)C(=O)N1CCc2c(c(C(C)C)nn2C)C1 (single isomer, unassigned) [Compound 5-2, (S or R)-9-ethyl-N-(1-{[1-methyl-3-(1-methylethyl)-1,4,6,7-tetrahydro-5H-pyrazolo[4,3-c]pyridin-5-yl]carbonyl}propyl)-8-(2-methylpyrimidin-5-yl)-9H-purin-6-amine]	>10	39
CC[C@H](Nc1ccnc2c1nc(-c1cnc(C)nc1)n2CC)C(=O)N1C[C@@H](C)O[C@@H](C)C1 [Compound 3-1, N-[(1S)-1-{[(cis)-2,6-dimethylmorpholin-4-yl]carbonyl}propyl]-3-ethyl-2-(2-methylpyrimidin-5-yl)-3H-imidazo[4,5-b]pyridin-7-amine]	>10	17
CC[C@H](Nc1ncnc2c1nc(-c1cnc(C)nc1)n2CC)C(=O)N1CCOC(C)(C)C1 [Compound 2-33, N-{(1S)-1-[(2,2-dimethylmorpholin-4-yl)carbonyl]propyl}-9-ethyl-8-(2-methylpyrimidin-5-yl)-9H-purin-6-amine]	>10	9.8
CCC(Nc1ncnc2c1nc(-c1cnn(CC)c1C)n2C)C(=O)N1CCC(F)(F)CC1 (racemic) [Compound 1-5, (R and S)-N-{1-[(4,4-difluoropiperidin-1-yl)carbonyl]propyl}-8-(1-ethyl-5-methyl-1H-pyrazol-4-yl)-9-methyl-9H-purin-6-amine]	>10	9
CC[C@H](Nc1ncnc2c1nc(-c1cnc(C)nc1)n2CC)C(=O)N1CC(=O)N(C)C(C)C1 (single isomer, unassigned) [Compound 4-5, (S or R)-4-[(2S)-2-{[9-ethyl-8-(2-methylpyrimidin-5-yl)-9H-purin-6-yl]amino}butanoyl]-1,6-dimethylpiperazin-2-one]	>10	6.1
CCn1c(-c2cnc(C)nc2)nc2c(N[C@H](C(=O)N3C[C@@H](C)O[C@@H](C)C3)C3CCCC3)ncnc21 [Compound 2-48, N-{(1S)-1-cyclopentyl-2-[(cis)-2,6-dimethylmorpholin-4-yl]-2-oxoethyl}-9-ethyl-8-(2-methylpyrimidin-5-yl)-9H-purin-6-amine]	>10	55
CC[C@H](Nc1ncnc2c1nc(-c1cnc(C)nc1)n2CC)C(=O)N1CC[C@@H]2CCCC[C@@H]2C1 [Compound 2-20, 9-ethyl-8-(2-methylpyrimidin-5-yl)-N-{(1S)-1-[(cis)-octahydroisoquinolin-2(1H)-ylcarbonyl]propyl}-9H-purin-6-amine]	>10	14
CCn1c(-c2cnc(C)nc2)nc2c(NCC3(C(=O)N4C[C@@H](C)O[C@@H](C)C4)CC3)ncnc21 [Compound 2-57, N-[(1-{[(cis)-2,6-dimethylmorpholin-4-yl]carbonyl}cyclopropyl)methyl]-9-ethyl-8-(2-methylpyrimidin-5-yl)-9H-purin-6-amine]	>10	24
CCn1c(-c2cnc(C)nc2)nc2c(NC[C@@H](C)C(=O)N3CCCC3)ncnc21 [Compound 2-60, 9-ethyl-N-[(2R)-2-methyl-3-oxo-3-pyrrolidin-1-ylpropyl]-8-(2-methylpyrimidin-5-yl)-9H-purin-6-amine]	>10	29
CCn1c(-c2cnc(C)nc2)nc2c(N[C@H](C(=O)N3C[C@@H](C)O[C@@H](C)C3)C(C)C)ncnc21 [Compound 2-49, N-[(1S)-1-{[(cis)-2,6-dimethylmorpholin-4-yl]carbonyl}-2-methylpropyl]-9-ethyl-8-(2-methylpyrimidin-5-yl)-9H-purin-6-amine]	>10	4.1
CCC(Nc1ncnc2c1nc(-c1cnc(C)nc1)n2CC)C(=O)N1CCn2c(CC(C)C)nnc2C1 (single isomer, unassigned) [Compound 5-1, (S or R)-9-ethyl-N-(1-{[3-(2-methylpropyl)-5,6-dihydro[1,2,4]triazolo[4,3-a]pyrazin-7(8H)-yl]carbonyl}propyl)-8-(2-methylpyrimidin-5-yl)-9H-purin-6-amine]	>10	38
CCn1c(-c2cnc(C)nc2)nc2c(NC(C(=O)N3C[C@@H](C)O[C@@H](C)C3)C3CC3)ccnc21 (single isomer, unassigned) [Compound 3-4, N-{(R or S)-1-cyclopropyl-2-[(cis)-2,6-dimethylmorpholin-4-yl]-2-oxoethyl}-3-ethyl-2-(2-methylpyrimidin-5-yl)-3H-imidazo[4,5-b]pyridin-7-amine]	>10	5.2
CCn1c(-c2cnc(C)nc2)nc2c(NCC3(C(=O)N4CCCC4)CC3)ncnc21 [Compound 2-61, 9-ethyl-8-(2-methylpyrimidin-5-yl)-N-{[1-(pyrrolidin-1-ylcarbonyl)cyclopropyl]methyl}-9H-purin-6-amine]	>10	93
CC[C@H](Nc1ncnc2c1nc(-c1cnc(C)nc1)n2CC)C(=O)N1CCCC(OC)CC1 (mixture of isomers) [Compound 2-9, 9-ethyl-N-{(1S)-1-[(4-methoxyazepan-1-yl)carbonyl]propyl}-8-((R and S)-2-methylpyrimidin-5-yl)-9H-purin-6-amine]	>10	23
CC[C@H](Nc1ncnc2c1nc(-c1cnc(C)nc1)n2CC)C(=O)N1CC[C@@H](F)C1 [Compound 2-16, 9-ethyl-N-[(1S)-1-{[(3R)-3-fluoropyrrolidin-1-yl]carbonyl}propyl]-8-(2-methylpyrimidin-5-yl)-9H-purin-6-amine]	>10	112
CCn1c(-c2cnc(C)nc2)nc2c(N[C@H](C(=O)N3C[C@@H](C)O[C@@H](C)C3)[C@@H](C)OC)ncnc21 [Compound 2-52, N-[(1S,2R)-1-{[(cis)-2,6-dimethylmorpholin-4-yl]carbonyl}-2-methoxypropyl]-9-ethyl-8-(2-methylpyrimidin-5-yl)-9H-purin-6-amine]	>10	3.7
CC[C@H](Nc1ncnc2c1nc(-c1cnc(C)nc1)n2CC)C(=O)N1CCCC(F)(F)C1 [Compound 2-12, N-{(1S)-1-[(3,3-difluoropiperidin-1-yl)carbonyl]propyl}-9-ethyl-8-(2-methylpyrimidin-5-yl)-9H-purin-6-amine]	>10	11
CCn1ncc(-c2nc3c(N[C@H](Cc4ccccc4)C(=O)N4CCOCC4)ncnc3n2C)c1C [Compound 2-1, N-[(1R)-1-benzyl-2-morpholin-4-yl-2-oxoethyl]-8-(1-ethyl-5-methyl-1H-pyrazol-4-yl)-9-methyl-9H-purin-6-amine]	>10	15
CC[C@H](Nc1ncnc2c1nc(-c1cnc(C)nc1)n2CC)C(=O)N1CCCOCC1 [Compound 2-25, 9-ethyl-8-(2-methylpyrimidin-5-yl)-N-[(1S)-1-(1,4-oxazepan-4-ylcarbonyl)propyl]-9H-purin-6-amine]	>10	21
CC[C@H](Nc1ncnc2c1nc(-c1cnc(C)nc1)n2CC)C(=O)N1C[C@@H]2C[C@H]1CO2 [Compound 2-31, 9-ethyl-8-(2-methylpyrimidin-5-yl)-N-{(1S)-1-[(1S,4S)-2-oxa-5-azabicyclo[2.2.1]hept-5-ylcarbonyl]propyl}-9H-purin-6-amine]	>10	37
CCC[C@H](Nc1ncnc2c1nc(-c1cnc(C)nc1)n2CC)C(=O)N1C[C@@H](C)O[C@@H](C)C1 [Compound 2-45, N-[(1S)-1-{[(cis)-2,6-dimethylmorpholin-4-yl]carbonyl}butyl]-9-ethyl-8-(2-methylpyrimidin-5-yl)-9H-purin-6-amine]	>10	26
